According to paper PMC12974487, “Inhibition of FicD-mediated AMPylation and deAMPylation by isoprenoid diphosphates” (Proceedings of the National Academy of Sciences of the …, 2026):
Changes are numbered by the printed parent chain.

Assays:
FicD^L258D = molecular target: T1, FicD^L258D (Homo sapiens, UniProt Q9BVA6, L258D); assay: Differential scanning fluorimetry (DSF) thermal shift with FicD^L258D; format: binding; settings: for EC50: read-out: EC50 of DSF dose-response (ΔTm)
T1 construct: soluble ER luminal domain (residues 105 to 458) of wild-type human FicD and three mutants; 6xHis-Sumo (N, cleaved yes); made in house; host or cells: Rosetta(DE3) E. coli
T1 sequence (Q9BVA6 105-458 L258D): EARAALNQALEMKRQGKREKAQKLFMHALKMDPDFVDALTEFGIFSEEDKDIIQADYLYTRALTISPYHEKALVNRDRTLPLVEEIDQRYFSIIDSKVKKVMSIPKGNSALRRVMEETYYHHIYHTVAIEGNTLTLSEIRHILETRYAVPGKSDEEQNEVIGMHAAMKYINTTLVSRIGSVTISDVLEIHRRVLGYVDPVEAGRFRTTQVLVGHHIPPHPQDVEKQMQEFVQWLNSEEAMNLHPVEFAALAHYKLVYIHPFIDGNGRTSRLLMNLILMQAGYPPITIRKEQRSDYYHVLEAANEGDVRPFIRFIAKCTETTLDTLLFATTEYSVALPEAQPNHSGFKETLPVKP

FicD^WT = molecular target: T2, FicD^WT (Homo sapiens, UniProt Q9BVA6); assay: MIDAS equilibrium dialysis/mass spectrometry metabolite screen, FicD^WT; format: binding; settings: cutoff Q < 0.05 and |Log2 corrected fold change| > 2, metabolites 5 µM
T2 construct: soluble ER luminal domain (residues 105 to 458) of wild-type human FicD; 6xHis-Sumo (N, cleaved yes); made in house; host or cells: Rosetta(DE3) E. coli
T2 sequence (Q9BVA6 105-458): T1 sequence (Q9BVA6 105-458 L258D) with D154L
From the text: To identify small-molecule metabolite interactions with FicD, we applied an unbiased high-throughput screening approach known as MIDAS ([44]).

SMILES | apparent binding (DSF EC50) fold tighter than that of ADP (FicD^L258D; FicD^L258D, 5 mM MgCl2) | binding to FicD^L258D by DSF (FicD^L258D; absence of MgCl2) | binding to FicD^L258D by DSF (FicD^L258D; presence of 5 mM MgCl2) | MIDAS protein-metabolite interaction (enrichment/depletion) (FicD^WT) | maximal Tm shift at saturating ligand concentration (FicD^L258D; FicD^L258D, 5 mM MgCl2) | EC50 (FicD^L258D; FicD^L258D, 5 mM MgCl2)
CC(C)=CCC/C(C)=C/CC/C(C)=C/COP(=O)(O)OP(=O)(O)O [FPP, farnesyl-pyrophosphate] | 20 to 30 fold | did not bind | bound | significantly enriched | – | –
Nc1ncnc2c1ncn2[C@@H]1O[C@H](COP(=O)(O)OP(=O)(O)O)[C@@H](O)[C@H]1O [ADP] | – | did not bind | binding | significantly enriched | ~ 10 °C | 370 µM
CC(C)=CCC/C(C)=C/COP(=O)(O)OP(=O)(O)O [GPP, geranyl-pyrophosphate] | 20 to 30 fold | – | – | significantly enriched | – | 14.8 µM
